Like-named read-outs stand apart in the source and are kept apart here.

From US8268848B2, “Cyclopropane compound” (Eisai R&D Management Co., Ltd., priority 2010, dated 2012) come the findings set out here.

One experiment concerns the target T1, OX2 (Homo sapiens, UniProt O43614).
T1 sequence (O43614 1-444): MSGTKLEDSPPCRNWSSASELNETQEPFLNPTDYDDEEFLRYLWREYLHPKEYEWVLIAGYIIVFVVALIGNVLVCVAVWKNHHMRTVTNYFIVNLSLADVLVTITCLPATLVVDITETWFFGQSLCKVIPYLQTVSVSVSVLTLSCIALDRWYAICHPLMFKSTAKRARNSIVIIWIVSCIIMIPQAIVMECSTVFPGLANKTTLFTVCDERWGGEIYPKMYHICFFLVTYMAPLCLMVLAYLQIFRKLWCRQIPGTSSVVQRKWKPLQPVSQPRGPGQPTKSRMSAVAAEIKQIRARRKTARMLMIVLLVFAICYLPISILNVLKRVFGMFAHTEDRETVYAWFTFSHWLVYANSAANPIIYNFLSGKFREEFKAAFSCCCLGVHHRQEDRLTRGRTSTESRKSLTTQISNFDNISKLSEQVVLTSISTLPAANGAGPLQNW
In words: Measurement of orexin receptor-binding ability ([125I]-OX-A, cell membranes, OX2). Particulars: membranes of recombinant CHO cells expressing OX2, 0.2 nM [125I]-OX-A. On the set-up: expressed in transfected cells; host or cells: CHO cells (membrane preparation).

In a further experiment the target is T2, OX1 (Homo sapiens, UniProt O43613).
T2 sequence (O43613 1-425): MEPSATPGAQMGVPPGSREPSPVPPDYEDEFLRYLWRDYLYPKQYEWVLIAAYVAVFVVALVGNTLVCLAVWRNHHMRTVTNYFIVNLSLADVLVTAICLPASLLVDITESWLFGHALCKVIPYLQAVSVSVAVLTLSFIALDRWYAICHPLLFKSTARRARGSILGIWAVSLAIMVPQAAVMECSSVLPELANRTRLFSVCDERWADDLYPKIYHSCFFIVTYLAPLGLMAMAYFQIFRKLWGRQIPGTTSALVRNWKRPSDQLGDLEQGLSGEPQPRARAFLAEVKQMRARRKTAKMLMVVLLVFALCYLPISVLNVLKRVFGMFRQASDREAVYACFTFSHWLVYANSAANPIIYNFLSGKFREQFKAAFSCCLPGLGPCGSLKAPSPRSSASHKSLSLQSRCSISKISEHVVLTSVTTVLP
Nature of the experiment: Measurement of orexin receptor-binding ability ([125I]-OX-A, cell membranes, OX1). On the set-up: expressed in transfected cells; host or cells: CHO cells (membrane preparation).

The mark [1] stands for this setting: membranes of recombinant CHO cells expressing OX1, 0.2 nM [125I]-OX-A, read-out: OX1 (IC50).

As a reminder, the IC50 is the midpoint of a concentration-inhibition curve. With `COCc1nc(C)ncc1OC[C@@]1(c2ccc(F)cc2)C[C@H]1C(=O)Nc1ccc(F)cn1` [Example 202, (1R,2S)-2-(4-fluorophenyl)-N-(5-fluoropyridin-2-yl)-2-{[(4-methoxymethyl-2-methylpyrimidin-5-yl)oxy]methyl}cyclopropanecarboxamide], the IC50 turned out to be 2 nM at OX2 (OX2 (IC50) nM) and 14 nM on OX1.
Consider `COCc1nc(C)ncc1OC[C@@]1(c2ccc(F)cc2)C[C@H]1C(=O)Nc1ccc(F)cc1` [Example 203, (1R,2S)-N,2-bis(4-fluorophenyl)-2-{[(4-methoxymethyl-2-methylpyrimidin-5-yl)oxy]methyl}cyclopropanecarboxamide], for which the IC50 on OX2 (read-out: OX2 (IC50)) turned out to be 8 nM; on OX1 (setting [1]), 215 nM.
In the case of `COCc1nc(C)ncc1OC[C@@]1(c2ccc(F)cc2)C[C@H]1C(=O)Nc1ccc(Cl)cn1` [Example 204, (1R,2S)-N-(5-chloropyridin-2-yl)-2-(4-fluorophenyl)-2-{[(4-methoxymethyl-2-methylpyrimidin-5-yl)oxy]methyl}cyclopropanecarboxamide], the results for the 50% inhibitory concentration (IC50) on OX2 (read-out: OX2 (IC50)) and on OX1 (setting [1]) were 5 nM and 22 nM, respectively.
As for `COCc1nc(C)ncc1OC[C@@]1(c2ccc(F)cc2)C[C@H]1C(=O)Nc1cc(C)c(F)cn1` [Example 205, (1R,2S)-N-(5-fluoro-4-methylpyridin-2-yl)-2-(4-fluorophenyl)-2-{[(4-methoxymethyl-2-methylpyrimidin-5-yl)oxy]methyl}cyclopropanecarboxamide], the 50% inhibitory concentration (IC50) is 6 nM at OX2 (OX2 (IC50) nM) and 9 nM on OX1.
For the molecule `COCc1nc(C)ncc1OC[C@@]1(c2ccc(F)cc2)C[C@H]1C(=O)Nc1ccc(F)c(F)c1` [Example 207, (1R,2S)-N-(3,4-difluorophenyl)-2-(4-fluorophenyl)-2-{[(4-methoxymethyl-2-methylpyrimidin-5-yl)oxy]methyl}cyclopropanecarboxamide], the half-inhibitory concentration (IC50) was 9 nM at OX2 (read-out: OX2 (IC50)) and 110 nM at OX1 (setting [1]).
As for `COCc1nc(C)ncc1OC[C@@]1(c2ccc(F)c(F)c2)C[C@H]1C(=O)Nc1ccccn1` [Example 211, (1R,2S)-2-(3,4-difluorophenyl)-2-{[(4-methoxymethyl-2-methylpyrimidin-5-yl)oxy]methyl}-N-(pyridin-2-yl)cyclopropanecarboxamide], the IC50 is 4 nM at OX2 (OX2 (IC50) nM) and 20 nM on OX1.
Consider `COCc1nc(C)ncc1OC[C@@]1(c2ccc(F)c(F)c2)C[C@H]1C(=O)Nc1cc(C)c(F)cn1` [Example 212, (1R,2S)-2-(3,4-difluorophenyl)-N-(5-fluoro-4-methylpyridin-2-yl)-2-{[(4-methoxymethyl-2-methylpyrimidin-5-yl)oxy]methyl}cyclopropanecarboxamide], for which the figures for the IC50 on OX2 (read-out: OX2 (IC50)) and on OX1 (setting [1]) were 7 nM and 4 nM, respectively.
The matching figures for `COCc1nc(C)ncc1OC[C@@]1(c2ccc(F)c(F)c2)C[C@H]1C(=O)Nc1ccc(F)cc1` [Example 213]: 11 nM and 14 nM.
Take `COCc1nc(C)ncc1OC[C@@]1(c2cc(F)cc(F)c2)C[C@H]1C(=O)Nc1ccccn1` [Example 218, (1R,2S)-2-(3,5-difluorophenyl)-2-{[(4-methoxymethyl-2-methylpyrimidin-5-yl)oxy]methyl}-N-(pyridin-2-yl)cyclopropanecarboxamide]: the IC50 on OX2 (read-out: OX2 (IC50)) turned out to be 3 nM; on OX1 (setting [1]), 10 nM.
The matching figures for `COCc1nc(C)ncc1OC[C@@]1(c2cc(F)cc(F)c2)C[C@H]1C(=O)Nc1ccc(F)cc1` [Example 219, (1R,2S)-2-(3,5-difluorophenyl)-N-(4-fluorophenyl)-2-{[(4-methoxymethyl-2-methylpyrimidin-5-yl)oxy]methyl}cyclopropanecarboxamide]: 3 nM and 10 nM.
The matching figures for `COCc1nc(C)ncc1OC[C@@]1(c2cc(F)cc(F)c2)C[C@H]1C(=O)Nc1ccc(F)c(F)c1` [Example 221, (1R,2S)-N-(3,4-difluorophenyl)-2-(3,5-difluorophenyl)-2-{[(4-methoxymethyl-2-methylpyrimidin-5-yl)oxy]methyl}cyclopropanecarboxamide]: 3 nM and < 2 nM.
In the case of `COCc1nc(C)ncc1OC[C@@]1(c2cccc(Cl)c2)C[C@H]1C(=O)Nc1ccccn1` [Example 225, (1R,2S)-2-(3-chlorophenyl)-2-{[(4-methoxymethyl-2-methylpyrimidin-5-yl)oxy]methyl}-N-(pyridin-2-yl)cyclopropanecarboxamide], the IC50 on OX2 (read-out: OX2 (IC50)) stood at 3 nM; on OX1 (setting [1]), 6 nM.
`COCCc1nc(C)ncc1OC[C@@]1(c2cccc(F)c2)C[C@H]1C(=O)Nc1cc(C)c(F)cn1` [Example 229, (1R,2S)-N-(5-fluoro-4-methylpyridin-2-yl)-2-(3-fluorophenyl)-2-{[(4-methoxyethyl-2-methylpyrimidin-5-yl)oxy]methyl}cyclopropanecarboxamide]: the results for the IC50 at OX2 (OX2 (IC50) nM) and on OX1 were 4 nM and 19 nM, respectively.
Consider `COCc1nc(C)ncc1OC[C@@]1(c2cc(F)cc(OC)c2)C[C@H]1C(=O)Nc1ccc(F)c(F)c1` [Example 232, (1R,2S)-N-(3,4-difluorophenyl)-2-(3-fluoro-5-methoxyphenyl)-2-{[(4-methoxymethyl-2-methylpyrimidin-5-yl)oxy]methyl}cyclopropanecarboxamide], for which the IC50 is 3 nM on OX2 (read-out: OX2 (IC50)) and 1 nM at OX1 (setting [1]).
Take `COCc1nc(C)ncc1OC[C@@]1(c2cc(F)cc(OC)c2)C[C@H]1C(=O)Nc1cc(C)c(F)cn1` [Example 234, (1R,2S)-2-(3-fluoro-5-methoxyphenyl)-N-(5-fluoro-4-methylpyridin-2-yl)-2-{[(4-methoxymethyl-2-methylpyrimidin-5-yl)oxy]methyl}cyclopropanecarboxamide]: the values for the half-maximal inhibitory concentration (IC50) on OX2 (read-out: OX2 (IC50)) and at OX1 (setting [1]) were 4 nM and < 2 nM, respectively.
With `COCc1nc(C)ncc1OC[C@@]1(c2cc(F)cc(OC)c2)C[C@H]1C(=O)Nc1cccc(F)c1` [Example 236, (1R,2S)-2-(3-fluoro-5-methoxyphenyl)-N-(3-fluorophenyl)-2-{[(4-methoxymethyl-2-methylpyrimidin-5-yl)oxy]methyl}cyclopropanecarboxamide], the IC50 on OX2 (OX2 (IC50) nM) stood at 5 nM; at OX1 it was 21 nM.
For `CCc1nc(C)ncc1OC[C@@]1(c2cccc(F)c2)C[C@H]1C(=O)Nc1ccc(F)cn1` [Example 241, (1R,2S)-2-{[(4-ethyl-2-methylpyrimidin-5-yl)oxy]methyl}-2-(3-fluorophenyl)-N-(5-fluoropyridin-2-yl)cyclopropanecarboxamide], in that order: 2.2 nM and 2 nM.
In the case of `CCc1nc(C)ncc1OC[C@@]1(c2cccc(F)c2)C[C@H]1C(=O)Nc1ccc(C#N)cn1` [Example 242, (1R,2S)-N-(5-cyanopyridin-2-yl)-2-{[(4-ethyl-2-methylpyrimidin-5-yl)oxy]methyl}-2-(3-fluorophenyl)cyclopropanecarboxamide], the results for the IC50 on OX2 (read-out: OX2 (IC50)) and on OX1 (setting [1]) were 4 nM and 6 nM, respectively.
For the molecule `CCc1nc(C)ncc1OC[C@@]1(c2cccc(F)c2)C[C@H]1C(=O)Nc1ccc(Cl)cn1` [Example 243, (1R,2S)-N-(5-chloropyridin-2-yl)-2-{[(4-ethyl-2-methylpyrimidin-5-yl)oxy]methyl}-2-(3-fluorophenyl)cyclopropanecarboxamide], the IC50 on OX2 (OX2 (IC50) nM) was determined as 3.3 nM; at OX1, 2 nM.
Regarding `CCc1nc(C)ncc1OC[C@@]1(c2cccc(F)c2)C[C@H]1C(=O)Nc1cc(C)c(F)cn1` [Example 244, (1R,2S)-2-{[(4-ethyl-2-methylpyrimidin-5-yl)oxy]methyl}-N-(5-fluoro-4-methylpyridin-2-yl)-2-(3-fluorophenyl)cyclopropanecarboxamide], the results for the IC50 at OX2 (read-out: OX2 (IC50)) and at OX1 (setting [1]) were 5.3 nM and 3 nM, respectively.
In the case of `CCc1nc(C)ncc1OC[C@@]1(c2ccc(F)cc2)C[C@H]1C(=O)Nc1ccccn1` [Example 245, (1R,2S)-2-{[(4-ethyl-2-methylpyrimidin-5-yl)oxy]methyl}-2-(4-fluorophenyl)-N-(pyridin-2-yl)cyclopropanecarboxamide], the IC50 is 10 nM on OX2 (OX2 (IC50) nM) and 64 nM at OX1.
Take `CCc1nc(C)ncc1OC[C@@]1(c2ccc(F)cc2)C[C@H]1C(=O)Nc1ccc(F)cn1` [Example 246, (1R,2S)-2-{[(4-ethyl-2-methylpyrimidin-5-yl)oxy]methyl}-2-(4-fluorophenyl)-N-(5-fluoropyridin-2-yl)cyclopropanecarboxamide]: the values for the IC50 on OX2 (OX2 (IC50) nM) and at OX1 were 4 nM and 16 nM, respectively.
